Patent US20240181022A1, “AMURINS LYSINS, AND LYSIN-ANTIMICROBIAL PEPTIDE (AMP) CONSTRUCTS ACTIVE AGAINST GRAM-NEGATIVE BACTERIA” (priority 2021, published 2024)
Converted amounts (≈) assume the structure as drawn. Where a SMILES comes first, the peptide text is derived from it. [ ]: non-standard residue; d: D form.

Legend:
S. maltophilia [1] = experiment: Time-kill assay in cystic fibrosis patient sputum, S. maltophilia; type: cell-based, Stenotrophomonas maltophilia
Source text: (§1) Sputum from 5 cystic fibrosis patients was pooled. The resulting mixture was not filtered, as it was very dense and not amenable to sterilization by filtration. Sputum is known to be a complex mixture of DNA, carbohydrates, and lipids ([…], 2016). As used herein, the term “sputum” refers to the mucus present in the respiratory tract of an animal, such as a human. Sputum may increase in thickness due to the irritation or infection, including bacterial infection, and in some instances, may be expelled by the animal while coughing. In certain instances, cystic fibrosis may be characterized by the presence of a thick, sticky mucus or sputum present in the lungs of cystic fibrosis patients. The activity of GN370, AM1, AM2, AM3, and meropenem was determined in the sputum using a time-kill assay format as disclosed in Zhang et al., Antimicrobial peptide therapeutics for cystic fibrosis, Antimicrobial Agents Chemother. 2005; 49(7):2921-2927. […] Untreated controls were included in addition to pretreatment plating (t=0) for a baseline CFU determination. Activity was also determined in the absence of sputum for comparison to activity observed in the presence of sputum.

A. xylosoxidans [2] = experiment: Time-kill assay in cystic fibrosis patient sputum, A. xylosoxidans; type: cell-based, Achromobacter xylosoxidans
Source text: as §1

B. gladioli = type: cell-based, Burkholderia gladioli; conditions: B. gladioli (15); 2-hour treatment
Procedure: (§2) The MBEC (after 2-hour treatments) was determined as described in Jones and Wozniak, PsI Produced by Mucoid Pseudomonas aeruginosa Contributes to the Establishment of Biofilms and Immune Evasion, Am. Soc. Microbiol. 2017, 8(3):e00864-17. Meropenem and tobramycin were included as controls and were both poorly active, with MBEC90 values of >256 μg/mL (data not shown).

S. maltophilia [3] = test system: S. maltophilia
A. xylosoxidans [4] = type: cell-based, Achromobacter xylosoxidans
Procedure: MIC values were determined using a modification of the standard broth microdilution reference method defined by the Clinical and Laboratory Standards Institute (CLSI), CLSL. 2015. Methods for Dilution Antimicrobial Susceptibility Tests for Bacteria That Grow Aerobically; Approved Standard-10th Edition. Clinical and Laboratory Standards Institute, Wayne, PA. The modification was based on the replacement of Mueller Hinton Broth with either CAA media (with and without NaCl) or CAA supplemented with 2.5% human serum. MIC is the minimum concentration of peptide sufficient to suppress at least 80% of the bacterial growth compared to control.
The MICs for were determined as described below using the broth microdilution method for meropenem, GN370, AM1, AM2, and AM3. The results are shown below in Tables 8-12.
The activity of GN370 and AM1 was evaluated against various bacterial isolates, including mucoid and α-hemolytic isolates of P. aeruginosa, MDR isolates, and carbapenem-resistant isolates.

M. scrofulaceum = experiment: MIC against M. scrofulaceum; type: cell-based, Mycobacterium scrofulaceum; conditions: M. scrofulaceum (ATCC 19981); CAAT media
S. maltophilia [5] = test system: S. maltophilia; remark: listed apart in the source
Procedure: (§3) Biofilms are then washed and treated with e.g., a 2-fold dilution series of the lysin in TSBg at e.g., 37° C. for 24 hours. After treatment, wells are washed, air-dried at e.g., 37° C. and stained with e.g., 0.05% crystal violet for 10 minutes.
(§4) The antibiofilm activity of GN370, AM1, AM2, and AM3 was evaluated against various Gram-negative bacteria prevalent in cystic fibrosis patients, including P. aeruginosa, S. maltophilia, and A. xylosoxidans.
(§5) The MBEC (after 2-hour treatments) was determined as described in Jones and Wozniak, PsI Produced by Mucoid Pseudomonas aeruginosa Contributes to the Establishment of Biofilms and Immune Evasion, Am. […] Microbiol.

A. xylosoxidans [6] = test system: A. xylosoxidans
Procedure: as §3, §4, §5

B. multivorans = test system: B. multivorans
Procedure: as §3, §4, §5

P. apista = type: cell-based, Pandoraea apista
Procedure: as §2

M. fortuitum = experiment: MIC against M. fortuitum; type: cell-based, Mycobacterium fortuitum; conditions: M. fortuitum (ATCC 6841); CAAT media
B. cenocepacia = type: cell-based, Burkholderia cenocepacia
Procedure: as §2

M. intracellulare = experiment: MIC against M. intracellulare; type: cell-based, Mycobacterium intracellulare; conditions: M. intracellulare (ATCC 13950); CAAT media
Mycobacterium species = type: cell-based
[7] = all tested isolates, Tables 8-12

## CC[C@H](C)[C@H](NC(=O)[C@@H](CCCNC(=N)N)NC(=O)[C@H](Cc1ccccc1)NC(=O)CNC(=O)CNC(=O)[C@@H](CCCNC(=N)N)NC(=O)[C@H](CCSC)NC(=O)[C@@H]1CCCN1C(=O)[C@@H](CCCNC(=N)N)NC(=O)[C@H](C)NC(=O)[C@@H](CCCNC(=N)N)NC(=O)[C@H](CC(C)C)NC(=O)[C@H](CC(N)=O)NC(=O)[C@@H](CCCNC(=N)N)NC(=O)[C@@H](CCCCN)NC(=O)[C@@H](CCCCN)NC(=O)[C@@H](NC(=O)[C@H](CC(N)=O)NC(=O)[C@@H](NC(=O)[C@H](C)NC(=O)CNC(=O)[C@@H](CCCNC(=N)N)NC(=O)[C@@H](NC(=O)[C@H](Cc1ccccc1)NC(=O)[C@@H](NC(=O)[C@@H](CCCCN)NC(=O)[C@@H](CCCNC(=N)N)NC(=O)[C@H](CO)NC(=O)[C@@H](CCCCN)NC(=O)[C@@H](CCCCN)NC(=O)[C@@H](CCCCN)NC(=O)[C@H](CO)NC(=O)[C@H](CC(C)C)NC(=O)[C@@H](CCCCN)NC(=O)[C@@H](CCCNC(=N)N)NC(=O)[C@@H](CCCNC(=N)N)NC(=O)[C@@H](CCCCN)NC(=O)[C@@H](N)CCSC)[C@@H](C)CC)[C@@H](C)O)C(C)C)C(C)C)C(=O)O [AM3] (H-M[dK][dR][dR][dK]LS[dK][dK][dK]S[dR][dK]IFT[dR]GAVNV[dK][dK][dR]NL[dR]A[dR]PM[dR]GGF[dR]I-OH; N-terminus and C-terminus assumed)
S. maltophilia [1]; 10% CF sputum vs no sputum
  effect of sputum on antibacterial activity: none of GN370, AM1, AM2, and AM3 was inhibited
S. maltophilia [1]; absence of sputum, 1 hr
  Log10 CFU/mL of sputum: 2.3 Log10 CFU/mL of sputum
S. maltophilia [1]; absence of sputum, 3 hr
  Log10 CFU/mL of sputum: 2.3 Log10 CFU/mL of sputum
S. maltophilia [1]; absence of sputum, 24 hr
  Log10 CFU/mL of sputum: 2.3 Log10 CFU/mL of sputum
S. maltophilia [1]; presence of 10% sputum, 1 hr
  Log10 CFU/mL of sputum: 2.3 Log10 CFU/mL of sputum
S. maltophilia [1]; presence of 10% sputum, 3 hr
  Log10 CFU/mL of sputum: 2.3 Log10 CFU/mL of sputum
S. maltophilia [1]; presence of 10% sputum, 24 hr
  Log10 CFU/mL of sputum: 2.3 Log10 CFU/mL of sputum
S. maltophilia [1]; time-kill
  killing by 1 hour, maintained at 24 hours: complete killing
A. xylosoxidans [2]; 10% CF sputum vs no sputum
  effect of sputum on antibacterial activity: none of GN370, AM1, AM2, and AM3 was inhibited
A. xylosoxidans [2]; absence of sputum, 1 hr
  Log10 CFU/mL of sputum: 4.3 Log10 CFU/mL of sputum
A. xylosoxidans [2]; absence of sputum, 3 hr
  Log10 CFU/mL of sputum: 3.3 Log10 CFU/mL of sputum
A. xylosoxidans [2]; absence of sputum, 24 hr
  Log10 CFU/mL of sputum: 2.3 Log10 CFU/mL of sputum
A. xylosoxidans [2]; presence of 10% sputum, 1 hr
  Log10 CFU/mL of sputum: 2.3 Log10 CFU/mL of sputum
A. xylosoxidans [2]; presence of 10% sputum, 3 hr
  Log10 CFU/mL of sputum: 2.3 Log10 CFU/mL of sputum
A. xylosoxidans [2]; presence of 10% sputum, 24 hr
  Log10 CFU/mL of sputum: 2.3 Log10 CFU/mL of sputum
A. xylosoxidans [2]; time-kill
  killing by 1 hour, maintained at 24 hours: complete killing
B. gladioli
  MBEC50: 4 µg/mL
  MBEC90: 16 µg/mL
S. maltophilia [3]; S. maltophilia isolates
  MIC50: 0.5 µg/mL (≈ 0.109 µM)
  MIC90: 1 µg/mL (≈ 0.219 µM)
S. maltophilia [3]; S. maltophilia isolates, in µg/mL
  MIC Range: 0.016-2
S. maltophilia [3]; S. maltophilia test organism of the sputum time-kill assay
  MIC: AM3 (MIC = 0.25)
S. maltophilia [3]; [7]
  activity (MIC) against S. maltophilia isolates: highly active
P. aeruginosa; P. aeruginosa isolates
  MIC50: 0.06 µg/mL (≈ 0.0131 µM)
  MIC90: 0.25 µg/mL (≈ 0.0547 µM)
P. aeruginosa; P. aeruginosa isolates, in µg/mL
  MIC Range: 0.016-1
P. aeruginosa; P. aeruginosa test organism of the sputum time-kill assay
  MIC: (MIC = 0.125)
P. aeruginosa; [7]
  activity (MIC) against P. aeruginosa isolates: highly active
A. xylosoxidans [4]; A. xylosoxidans isolates
  MIC50: 2 µg/mL (≈ 0.438 µM)
  MIC90: 16 µg/mL (≈ 3.5 µM)
A. xylosoxidans [4]; A. xylosoxidans test organism of the sputum time-kill assay
  MIC: AM3 (MIC = 0.5)
M. scrofulaceum
  MIC: 2 µg/mL (≈ 0.438 µM)
S. maltophilia [5]
  MBEC50: 1 µg/mL
  MBEC90: 2 µg/mL
  MBEC Range: 0.125 to 16 µg/mL
A. xylosoxidans [6]
  MBEC50: 1 µg/mL
  MBEC90: 2 µg/mL
  MBEC Range: 0.125 to 4 µg/mL
A. xylosoxidans [6]; 2-hour treatments
  antibiofilm activity (MBEC) against A. xylosoxidans: primarily active
B. multivorans
  MBEC50: 2 µg/mL
  MBEC90: 4 µg/mL
  MBEC Range: 1 to 8 µg/mL
P. apista
  MBEC50: 8 µg/mL
  MBEC90: 8 µg/mL
  MBEC Range: 4 to 16 µg/mL
M. fortuitum
  MIC: 2 µg/mL (≈ 0.438 µM)
B. cenocepacia
  MBEC50: 16 µg/mL
  MBEC90: 32 µg/mL
  MBEC Range: 1 to 32 µg/mL
M. intracellulare
  MIC: 2 µg/mL (≈ 0.438 µM)
Mycobacterium species
  activity (MIC) against Mycobacterium species: highest activity
